Read-outs that look alike come from different tables or passages of the source.
Key:
[1] = system: S. typhimurium TA98; conditions: for TA98 + S9 revertants/plate: NC 26.5 ± 5.4; for TA98 revertants/plate: NC 15.7 ± 4.9
[2] = system: A. cepa; assay: A. cepa toxicity test (root length); format: in vivo, Allium cepa; conditions: for Roots Length: NC 2.07 ± 0.61
Method: A. cepa toxicity test: Twelve equal-sized young onion bulbs were exposed for 96 h in the dark to different concentrations of compounds dissolved in DMSO, changing the sample solution every day. […] Root macroscopic parameters such as turgescence, consistency, change in color and root tip shape, were used as toxicity indexes.

[3] = system: Crl1790 cells; assay: Cytotoxicity assay (CellTiter 96 AQueous One) on Crl1790; format: cell-based, human; conditions: Crl1790 cells, 24 h, only at the highest concentration (100 µM)
Method: (§1) The best antifungal and/or antiaflatoxigenic compounds were tested to determine their cytotoxic activity against human normal cell lines deriving from lung (HFL1, ATCC and CCL-153), skin (Hs27, ATCC, CRL1634) and colon (Crl1790, ATCC, CCD 841 CoN) and a cell line deriving from a hematological tumor (U937, ATCC and CRL-3253). These different cell lines have been chosen to simulate the different human exposition routes to pesticide. Cell culture conditions have been previously reported. Compound cytotoxicity was determined using CellTiter 96® AQueous One Solution Cell Proliferation Assay (Promega Corporation, Madison, WI, USA). The very detailed protocol was described by Bartoli et al.. In brief, cells were seeded in a 96-well plate at a density of 5000 cells/well and after 24 h cells were treated with different concentrations of the compounds (0.5–1–5–10–50–100 µM). After the treatment period (24 h), the CellTiter Reagent was added to each well (20 µL/well) and the plate incubated for 4 h at 37 °C. The plate was then read at 485 nm in a multiwell plate reader (TECAN SpectraFluor Plus, Männedorf, Switzerland).

[4] = as above; format: cell-based, human; conditions: human, Crl1790 (CCD 841 CoN) normal colon cells, Crl1790, 24 h, dose 0 = 100.00, read-out: Growth inhibition data
Method: as §1

[5] = system: aflatoxin accumulation by A. flavus; assay: microbe, parasite or virus in culture; format: cell-based, Aspergillus flavus; conditions: Aspergillus flavus
[6] = system: S. typhimurium TA98 and TA100 strains; assay: Ames test, overall mutagenicity verdict in bacteria; conditions: TA98 and TA100, -S9 and +S9
[7] = system: S. typhimurium TA100; conditions: for TA100 + S9 revertants/plate: NC 106.5 ± 11.9; for TA100 revertants/plate: NC 95.8 ± 5.5
[8] = system: A. cepa root cells; conditions: for MN (micronuclei frequency): NC 1.10 ± 1.28; for CA (aberrated cells / total cells in mitosis): NC 1.2
Method: To detect micronuclei and chromosomal aberrations six equal-sized pre-germinated young bulbs per sample were exposed for 24 h to sample dilutions. The bulbs dedicated to the micronuclei test underwent an additional treatment in the saline solution for 44 h of recovery time to cover two rounds of mitosis so that damage induced in chromosomes during mitosis to be visible as micronuclei in interphase cells. Then all the roots were fixed in acetic acid and ethanol (1:3) for 24 h and lastly stored in 70% ethanol. The negative control was DMSO in Rank’s solution (the dose of DMSO corresponding to volume of samples) and positive control was maleic hydrazide (10^−2 M, 6 h exposure). […] All experiments were performed in duplicate.

[9] = system: Hs27 cells; assay: Cytotoxicity assay (CellTiter 96 AQueous One) on Hs27; format: cell-based, human; conditions: Hs27 cells, 24 h treatment
Method: as §1

[10] = as above; format: cell-based, human; conditions: human, Hs27 normal skin cells, Hs27, 24 h, dose 0 = 100.00, read-out: Growth inhibition data
Method: as §1

[11] = system: HFL1 cells; assay: Cytotoxicity assay (CellTiter 96 AQueous One) on HFL1; format: cell-based, human; conditions: HFL1 cells, 24 h treatment
Method: as §1

[12] = as above; format: cell-based, human; conditions: human, HFL1 normal lung cells, HFL1, 24 h, dose 0 = 100.00, read-out: Growth inhibition data
Method: as §1

[13] = read-out: A.I. (%) (aflatoxin accumulation inhibition)

CC(=NNC(N)=S)c1cccs1 [2-actpTS, 2-acetylthiophenethiosemicarbazone]
TA98 + S9 MR (mutagenicity ratio) ([1]; +S9, 0.1 µM/plate): 0.9
TA98 + S9 revertants/plate ([1]; +S9, 0.1 µM/plate): 25.0 ± 0.0 revertants/plate
TA98 + S9 MR (mutagenicity ratio) ([1]; +S9, 1.0 µM/plate): 1.4
TA98 + S9 revertants/plate ([1]; +S9, 1.0 µM/plate): 37.0 ± 4.2 revertants/plate
TA98 + S9 MR (mutagenicity ratio) ([1]; +S9, 10.0 µM/plate): 1.3
TA98 + S9 revertants/plate ([1]; +S9, 10.0 µM/plate): 34.0 ± 2.8 revertants/plate
TA98 + S9 MR (mutagenicity ratio) ([1]; +S9, 50.0 µM/plate): 1.2
TA98 + S9 revertants/plate ([1]; +S9, 50.0 µM/plate): 31.5 ± 6.4 revertants/plate
TA98 + S9 MR (mutagenicity ratio) ([1]; +S9, 100.0 µM/plate): 1.2
TA98 + S9 revertants/plate ([1]; +S9, 100.0 µM/plate): 32.0 ± 2.8 revertants/plate
TA98 MR (mutagenicity ratio) ([1]; -S9, 0.1 µM/plate): 1.9
TA98 revertants/plate ([1]; -S9, 0.1 µM/plate): 29.5 ± 3.5 revertants/plate
TA98 MR (mutagenicity ratio) ([1]; -S9, 1.0 µM/plate): 1.5
TA98 revertants/plate ([1]; -S9, 1.0 µM/plate): 23.5 ± 6.4 revertants/plate
TA98 MR (mutagenicity ratio) ([1]; -S9, 10.0 µM/plate): 1.0
TA98 revertants/plate ([1]; -S9, 10.0 µM/plate): 16.0 ± 1.4 revertants/plate
TA98 MR (mutagenicity ratio) ([1]; -S9, 50.0 µM/plate): 1.4
TA98 revertants/plate ([1]; -S9, 50.0 µM/plate): 22.5 ± 3.5 revertants/plate
TA98 MR (mutagenicity ratio) ([1]; -S9, 100.0 µM/plate): 1.3
TA98 revertants/plate ([1]; -S9, 100.0 µM/plate): 21.0 ± 0.0 revertants/plate
Roots Length ([2]; 10 µM): 2.17 ± 0.53 cm
Roots Length ([2]; 25 µM): 1.65 ± 0.43 cm
Roots Length ([2]; 50 µM): 1.68 ± 0.39 cm
Roots Length ([2]; 100 µM): 1.07 ± 0.23 cm
EC50 ([2]; Allium cepa, read-out: EC50 (50% A. cepa root growth inhibition), 96 h exposure): ~100 µM
cytotoxic activity [3]: mild cytotoxic activity
viability at 24 h, 0.5 µM ([4]; 0.5 µM): 100 ± 3.63%
viability at 24 h, 1 µM ([4]; 1 µM): 95.1 ± 7.76%
viability at 24 h, 5 µM ([4]; 5 µM): 88.4 ± 2.25%
viability at 24 h, 10 µM ([4]; 10 µM): 89.1 ± 5.24%
viability at 24 h, 50 µM ([4]; 50 µM): 81.8 ± 3.48%
viability at 24 h, 100 µM ([4]; 100 µM): 62 ± 4.6%
inhibition at 50 µM [5, 13]: 58.3%
inhibition at 100 µM [5, 13]: 88.4%
inhibition at 10 µM ([5]; read-out: percentage of aflatoxin accumulation inhibition): 23%
mutagenicity in bacteria [6]: no mutagenicity at any of the concentrations tested
TA100 + S9 MR (mutagenicity ratio) ([7]; +S9, 0.1 µM/plate): 0.9
TA100 + S9 revertants/plate ([7]; +S9, 0.1 µM/plate): 98.0 ± 24.0 revertants/plate
TA100 + S9 MR (mutagenicity ratio) ([7]; +S9, 1.0 µM/plate): 1.0
TA100 + S9 revertants/plate ([7]; +S9, 1.0 µM/plate): 104.0 ± 15.6 revertants/plate
TA100 + S9 MR (mutagenicity ratio) ([7]; +S9, 10.0 µM/plate): 1.0
TA100 + S9 revertants/plate ([7]; +S9, 10.0 µM/plate): 107.5 ± 0.7 revertants/plate
TA100 + S9 MR (mutagenicity ratio) ([7]; +S9, 50.0 µM/plate): 0.9
TA100 + S9 revertants/plate ([7]; +S9, 50.0 µM/plate): 90.5 ± 13.4 revertants/plate
TA100 + S9 MR (mutagenicity ratio) ([7]; +S9, 100.0 µM/plate): 0.8
TA100 + S9 revertants/plate ([7]; +S9, 100.0 µM/plate): 88.0 ± 8.5 revertants/plate
TA100 MR (mutagenicity ratio) ([7]; -S9, 0.1 µM/plate): 1.0
TA100 revertants/plate ([7]; -S9, 0.1 µM/plate): 92.0 ± 14.1 revertants/plate
TA100 MR (mutagenicity ratio) ([7]; -S9, 1.0 µM/plate): 1.1
TA100 revertants/plate ([7]; -S9, 1.0 µM/plate): 101.5 ± 4.9 revertants/plate
TA100 MR (mutagenicity ratio) ([7]; -S9, 10.0 µM/plate): 1.1
TA100 revertants/plate ([7]; -S9, 10.0 µM/plate): 104.5 ± 9.2 revertants/plate
TA100 MR (mutagenicity ratio) ([7]; -S9, 50.0 µM/plate): 0.9
TA100 revertants/plate ([7]; -S9, 50.0 µM/plate): 87.5 ± 7.8 revertants/plate
TA100 MR (mutagenicity ratio) ([7]; -S9, 100.0 µM/plate): 1.0
TA100 revertants/plate ([7]; -S9, 100.0 µM/plate): 99.5 ± 0.7 revertants/plate
MN (micronuclei frequency) ([8]; 10 µM): 1.20 ± 0.83%
CA (aberrated cells / total cells in mitosis) ([8]; 10 µM): 2.7%
MN (micronuclei frequency) ([8]; 25 µM): 1.40 ± 1.14%
CA (aberrated cells / total cells in mitosis) ([8]; 25 µM): 4.7%
MN (micronuclei frequency) ([8]; 50 µM): 2.00 ± 1.58%
CA (aberrated cells / total cells in mitosis) ([8]; 50 µM): 6.3%
toxicity to roots in the micronuclei test ([8]; 100 µM dose): highly toxic
CA (aberrated cells / total cells in mitosis) ([8]; 100 µM): 6.0%
cytotoxic effect [9]: did not show cytotoxic effect
viability at 24 h, 0.5 µM ([10]; 0.5 µM): 99.9 ± 7.65%
viability at 24 h, 1 µM ([10]; 1 µM): 97 ± 4.78%
viability at 24 h, 5 µM ([10]; 5 µM): 100 ± 5.97%
viability at 24 h, 10 µM ([10]; 10 µM): 97.7 ± 3.73%
viability at 24 h, 50 µM ([10]; 50 µM): 100 ± 9.25%
viability at 24 h, 100 µM ([10]; 100 µM): 87.3 ± 8.07%
50% inhibition of cell proliferation [11]: did not induce 50% inhibition of cell proliferation
viability at 24 h, 0.5 µM ([12]; 0.5 µM): 100 ± 11.1%
viability at 24 h, 1 µM ([12]; 1 µM): 100 ± 6.11%
viability at 24 h, 5 µM ([12]; 5 µM): 100 ± 5.74%
viability at 24 h, 10 µM ([12]; 10 µM): 100 ± 6.76%
viability at 24 h, 50 µM ([12]; 50 µM): 100 ± 4.53%
viability at 24 h, 100 µM ([12]; 100 µM): 92.5 ± 3.49%

Source: article PMC8123576 (International Journal of Molecular Sciences, 2021)
